Experimental data taken from patent US4728509A, “Aqueous liquid preparation” (Takeda Chemical Industries, Ltd., priority 1985, dated 1988).

Test: Solubility test of compound (a) with and without solubilizers (Experimental Example 1; HPLC of filtrate)
Details: not given
Protocol: Solubility tests of the compound (a) (2-amino-7-isopropyl-5-oxo-5H-[1]-benzopyrano[2,3-b]pyridine-3-carboxylic acid) employing the solubilizers of this invention and, for comparison, employing various conventional solubilizers were performed.
The solubility was measured by the following manner:
An excess amount of the compound (a) was added to a given volume of a phosphate buffer, the mixture was sufficiently stirred, then the pH was adjusted to a given level, the mixture was allowed to stand at room temperature (25° C.) for 48 hours, the resultant was subjected to filtration with 0.45μ membrane filter, followed by measuring the concentration of the compound (a) in the filtrate by means of high performance liquid chromatography.

effect for improving the solubility of compound (a)	Compound
excellent effect	OC[C@H]1O[C@@H]2O[C@H]3[C@H](O)[C@@H](O)[C@@H](O[C@H]4[C@H](O)[C@@H](O)[C@@H](O[C@H]5[C@H](O)[C@@H](O)[C@@H](O[C@H]6[C@H](O)[C@@H](O)[C@@H](O[C@H]7[C@H](O)[C@@H](O)[C@@H](O[C@H]8[C@H](O)[C@@H](O)[C@@H](O[C@H]1[C@H](O)[C@H]2O)O[C@@H]8CO)O[C@@H]7CO)O[C@@H]6CO)O[C@@H]5CO)O[C@@H]4CO)O[C@@H]3CO [β-cyclodextrin]
excellent effect	polyvinylpyrrolidone
less effective	Polyoxyethylene sorbitan monooleate [Tween 80, reference compound]
some improvement	NNC(=O)c1ccncc1 [isoniazid, reference compound]

Same assay, conditions: in words; substance used as solubilizer

Compound	effect for improving the solubility of compound (a)
NC(N)=O [urea, reference compound]	less effective
O=C([O-])c1ccccc1O.[Na+] [sodium salicylate, reference compound]	less effective
